Patent publication US11241434B2, “Compositions and methods for improving cognition in a subject” (Yale University, priority 2013, dated 2022)

Key:
Fyn (phospho-Src pY416) = test: pY416 and Fyn immunoblot of hippocampus of WT mice fed AZD0530 diet; format: in vivo, mouse; details: diet pellets 5 mg/kg/d, 9 months, vs Vehicle
Source text: FIGS. 17A-17C illustrate reduced Fyn activation in mice fed AZD0530-containing food. FIG. 17A: Representative blots using anti-pY416, Fyn, and 8-actin antibodies of the RIPA-soluble fraction of the hippocampus of WT mice treated with Vehicle or AZD0530 for 9 months. FIG. 17B: Quantification of pY416-immunoreactive bands from the immunoblot from FIG. 17A by densitometric analysis. The bands indicated by an arrow in FIG. 17A were quantified. The band intensity was normalized to that of 8-actin and then normalized to the mean of the Vehicle-treated WT group. Data are represented as mean±SEM. n=6/group. *p<0.05; t-test. FIG. 17C: Quantification of Fyn-immunoreactive bands from the immunoblot in FIG. 17A by densitometric analysis. The band intensity was normalized to that of β-actin and then normalized to the mean of the Vehicle-treated WT group. Data are represented as mean±SEM. n=6/group. t-test.
To generate chow containing chow for chronic dosing, the compound was incorporated into purified diet pellets by Research Diets, Inc. by dissolving the compound in a solution of 0.5% w/v Hydroxypropylmethylcellulose/0.1% w/v polysorbate 80 at 1.429 mg/ml. […] The dosage of the drug in the food was calculated to take into account the average amount of food eaten by a mouse in a single day per kg of weight and adjusted to be equivalent to ingesting 5 mg/kg per day. […]

[1] = Phase Ib study, CSF and plasma saracatinib levels (LC/MS/MS); format: in vivo, human; details: for estimated human brain concentration: using ratio of CSF:Brain in mouse; for trough CSF / free concentration of saracatinib in plasma / increase in CSF level: human; for free concentration of saracatinib in plasma: from trough CSF levels and FIG. 8 correlation
Procedure: Each point is from a different individual. The different dose groups are illustrated with different colors.
Each point represents trough CSF saracatinib level from a different human subject for the left three columns. The mouse trough CSF values are derived from brain levels at the 5 mg/kg/d dose that rescued memory deficits in FIGS. 3-5. Bars represent mean+sem.
Plasma samples are analyzed using solid-phase extraction followed by HPLCMS/MS. […] Calibration, quality control (QC) or blank plasma samples (200 μL) are pipetted into a standard 96-well plate. The appropriate internal standard (20 μL) is added to all samples (except the double blank to which 20 μL of methanol is added). 2% ammonium solution (1000 μL) is added to all wells and mixed. Solid-phase extraction is performed using Oasis HLB 30 mg 1 mL 96-well plates. The samples are conditioned with 1 mL methanol then 1 mL 2% ammonium solution. A 1 mL sample is loaded, washed with 1 mL 25:75, v:v methanol:water and eluted with 0.8 mL methanol. The samples are dried under oxygen-free nitrogen at 35° C. The dry residues are reconstituted in 200 μL of mobile phase, vortex mixed and transferred to 96-well plates. The vials are loaded onto HPLC-MS/MS and injected onto the reversed phase HPLC system. Calibration samples are prepared and analyzed in duplicate at LLOQ (lower limit of quantification) and ULOQ (upper limit of quantitation) and singly at all other levels. Independently prepared QC samples covering the calibration range are analyzed in duplicate and in triplicate at the dilution QC level. Plasma concentration data are quantified using an HPLC-MS/MS method and analyzed by standard methods using WinNonLin version 4.1 (Pharsight Corporation, Mountain View, Calif.).
Subjects were enrolled in three cohorts of 8 subjects each.
In certain embodiments, obtaining the scans worked as a pilot to the collection of brain metabolism data for the Phase 2a trial. In addition, saracatinib levels were measured in this study using a GLP-validated LC/MS/MS assay. […] CSF levels are about a third of plasma free drug levels.

## CN1CCN(CCOc2cc(OC3CCOCC3)c3c(Nc4c(Cl)ccc5c4OCO5)ncnc3c2)CC1 [saracatinib, N-(5-chloro-benzo[d][1,3]dioxol-4-yl)-7-(2-(4-methylpiperazin-1-yl)ethoxy)-5-(tetrahydro-2H-pyran-4-yloxy)quinazolin-4-amine]
Fyn (phospho-Src pY416)
  total Fyn levels in hippocampus: no difference
[1]; 50 mg saracatinib free base
  estimated human brain concentration: 3 to 7 nM
[1]; 100 mg saracatinib free base
  estimated human brain concentration: 7 to 27 nM
[1]; 125 mg saracatinib free base
  estimated human brain concentration: 8 to 46 nM
[1]; 50 mg saracatinib free base daily
  trough CSF: 0.9 to 2.2 nM
[1]; 50 mg
  free concentration of saracatinib in plasma: 2.6 to 6.5 nM
[1]; 100 mg saracatinib free base daily
  trough CSF: 2.1 to 8.3 nM
[1]; 100 mg
  free concentration of saracatinib in plasma: 6.2 to 24.4 nM
[1]; 125 mg saracatinib free base daily
  trough CSF: 2.5 to 14.0 nM
[1]; 125 mg
  free concentration of saracatinib in plasma: 7.4 to 41.2 nM
[1]; from 50 to 100 mg
  increase in CSF level: three-fold
[1]; from 100 to 125 mg
  increase in CSF level: two-fold
